{
  "source": "paper PMC9486805",
  "about": "“Identification of a Phage Display-Derived Peptide Interacting with the N-Terminal Region of Factor VII Activating Protease (FSAP) Enables Characterization of Zymogen Activation” (ACS Chemical Biology, 2022)",
  "key": {"[1]": {"tested_on": "prothrombin", "assay": "Specificity towards pro-enzymes: prothrombin", "type": "biochemical", "conditions": "prothrombin 100 nM; peptide 0-50 μM; CS01 (Fig S7)", "experimental": "Fig S7. […]\nPro-thrombin (100 nM) and thrombin (20 nM) […]\n(§1) Bend, IN, USA) except plasminogen and FSAP, which were isolated in house; and pro-uPA was from Grünenthal (Stolberg, Germany). All chromogenic substrates were from Hyphen Biomed (Neuville Sur Oise, France). Experiments were carried out in TBS with Tween-20 (0.1 % wt/ vol) BSA (0.3% wt/vol) and CaCl2 (2 mM). Absorbance at 405 nm was measured over time and the enzyme activity is depicted was measured in duplicates (mean + or -range) and similar results were obtained in 3"}, "[2]": {"tested_on": "plasmin", "assay": "Specificity: plasmin", "type": "biochemical", "conditions": "plasmin 20 nM; peptide 0-50 μM; CS41 (Fig S7)", "experimental": "Fig S7. […]\nas §1"}, "[3]": {"molecular_target": "T1, pro-FSAP in human plasma (Homo sapiens, UniProt Q14520)", "T1 construct": "from tissue; host or cells: human hirudin or citrate plasma from healthy donors, diluted 1:12", "T1 sequence (Q14520 24-560)": "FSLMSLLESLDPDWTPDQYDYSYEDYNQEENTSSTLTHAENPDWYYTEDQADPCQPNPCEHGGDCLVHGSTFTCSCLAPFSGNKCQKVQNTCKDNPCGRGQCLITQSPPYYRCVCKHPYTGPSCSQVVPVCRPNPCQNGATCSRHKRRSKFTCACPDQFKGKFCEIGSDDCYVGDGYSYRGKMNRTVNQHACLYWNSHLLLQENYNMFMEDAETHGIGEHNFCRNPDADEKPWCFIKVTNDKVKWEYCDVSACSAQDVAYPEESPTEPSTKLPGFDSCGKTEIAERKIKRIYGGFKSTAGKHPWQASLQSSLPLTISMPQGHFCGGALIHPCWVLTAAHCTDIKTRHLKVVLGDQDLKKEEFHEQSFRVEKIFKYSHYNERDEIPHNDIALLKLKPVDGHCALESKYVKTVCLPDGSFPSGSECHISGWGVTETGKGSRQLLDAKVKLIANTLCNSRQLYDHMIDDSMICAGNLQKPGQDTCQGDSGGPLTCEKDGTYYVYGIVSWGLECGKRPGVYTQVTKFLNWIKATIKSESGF", "assay": "Western blotting of activated plasma, FSAP-inhibitor complex", "type": "biochemical", "conditions": "hirudin and citrate plasma 1:2, 1 h at 37 °C, non-reducing; NNKC9/41 25 µM (Fig S6)", "experimental": "Hirudin plasma Citrate plasma\nFig S6. Western blotting of activated plasma: Hirudin or citrate plasma (1:2) dilution was incubated for 1 h at 37 °C with test substances and the samples were analyzed by Western blotting with an anti-FSAP polyclonal antibody under non-reducing conditions. Top panel: NNKC9/41 and Ser-Ser cyclic peptides (25 µM) were compared to histones (50 µg/ml). Lower panel: 100, 50, 25 and 12.5 µM NNKC9/41 and Ser-Ser cyclicpeptide were compared. Arrows on the right indicate the presence of FSAP and FSAP-inhibitor complexes and MW markers are indicated on the left.Results are representative of 3 independent experiments. […]"}, "[4]": {"tested_on": "immobilized pro-FSAP", "assay": "Activation of pro-FSAP captured from plasma on anti-FSAP antibody-coated wells", "type": "biochemical, human", "conditions": "peptide 0–25 μM in solution, duplicate wells (Fig 5A)", "experimental": "Figure 5 Characteristics of pro-FSAP activation in plasma by NNKC9/41: (A) neutravidin-coated wells were used to capture biotinylated NNKC9/41 or scrambled control peptide (0–25 μM). Hirudin plasma (1:10) was incubated in the wells for 1 h at 37 °C to allow for binding and activation of pro-FSAP. In parallel, wells were coated with rabbit polyclonal anti-FSAP antibody (2 μg/mL) and plasma was added to immobilize FSAP in the presence of solution phase NNKC9/41 or its scrambled control (0–25 μM). Fluorogenic substrate turnover (Ac–Ala–Lys–Nle–Arg–AMC) was monitored. (B) Plasma was incubated with NNKC9/41 and Ser–Ser control (0–50 μM each) in the absence of any antibody or in the presence of MA-FSAP-38C7 or MA-FSAP-32F10 (5 μg/mL) and the FSAP activity was monitored. (C) Plasma was incubated with NNKC9/41 (25 μM) in the presence of MA-FSAP-38C7 or MA-FSAP-32F10 (0–10 μg/mL) and the FSAP activity was monitored. For (A)–(C), results are shown as mean + range of duplicate wells."}, "[5]": {"tested_on": "recombinant serine protease domain (SPD) of FSAP", "assay": "Activity of recombinant serine protease domain of FSAP", "type": "biochemical, human", "conditions": "rSPD 20 nM; peptide 0-50 μM; S2288 250 µM (Fig S7A)", "experimental": "Fig S7. […]\nas §1, with “nM) and Factor Xa (20 nM) with S-2765 (250 µM). pro-FSAP (20 nM) and recombinant serine protease domain (rSPD) (20 nM) with S2288 (250 µM). All pro-enzymes and enzyme were obtained from Enzyme Research Laboratories (South Bend,” for “Bend,”"}, "[6]": {"tested_on": "Factor Xa", "assay": "Specificity: factor Xa", "type": "biochemical", "conditions": "Factor Xa 20 nM; peptide 0-50 μM; S-2765 (Fig S7)", "experimental": "Fig S7. […]\nas §1"}},
  "data": [
    {"sequence": "CRGAMWMYKRC [NNKC9/41]", "values": [
      {"measurement": "effect on activity", "setting": "[1]", "result": "did not influence the activity"},
      {"measurement": "effect on activity", "setting": "[2]", "result": "did not influence the activity"},
      {"measurement": "FSAP-inhibitor complex band", "setting": "[3]", "result": "emergence of an FSAP-inhibitor complex band"},
      {"measurement": "activation of captured pro-FSAP", "setting": "[4]", "result": "found to activate pro-FSAP"},
      {"measurement": "effect on activity of recombinant SPD", "setting": "[5]", "result": "did not alter the activity"},
      {"measurement": "effect on activity", "setting": "[6]", "result": "did not influence the activity"}
    ]}
  ]
}
